Reference: US20020103187A1, “Compositions and methods for treating superficial fungal infections” (priority 1999, published 2002)
Values after ≈ are worked out from the molar mass of the structure shown.

Legend:
[1] = tested on: Candida albicans; test: Antifungal activity; format: cell-based; conditions: the exception in the text summary of Table 1
[2] = tested on: Aspergillus fumigatus; test: Sensitivity of fungi to taurolidine, liquid medium; format: cell-based
[3] = tested on: C. albicans (Has. A); test: Sensitivity of fungi to taurolidine, solid medium; format: cell-based; conditions: Candida albicans
[4] = pH of saturated solution in deionized water; format: physicochemical
[5] = tested on: Sporotrichum schenkii; test: Sensitivity of fungi to taurolidine, solid medium; format: cell-based
[6] = tested on: C. tropicalis; test: Sensitivity of fungi to taurolidine, liquid medium; format: cell-based; conditions: Candida tropicalis
[7] = Solubility in aqueous solutions and organic solvents; format: physicochemical
[8] = tested on: C. albicans (I); test: Sensitivity of fungi to taurolidine, solid medium; format: cell-based; conditions: Candida albicans
[9] = tested on: Epidermophyton floccosum; test: Sensitivity of fungi to taurolidine, solid medium; format: cell-based
[10] = tested on: bacteria; test: Antibacterial activity; format: cell-based; conditions: antifungal activity stated approximately equivalent to it
[11] = tested on: Mucor spp. (heavy inoc.); test: Sensitivity of fungi to taurolidine, liquid medium; format: cell-based
[12] = tested on: C. albicans (Wilton); test: Sensitivity of fungi to taurolidine, solid medium; format: cell-based; conditions: Candida albicans
[13] = tested on: Mucor spp. (Lane); test: Sensitivity of fungi to taurolidine, solid medium; format: cell-based
[14] = tested on: Rhizopus spp.; test: Sensitivity of fungi to taurolidine, solid medium; format: cell-based
[15] = tested on: Trichophyton mentagrophytes; test: Sensitivity of fungi to taurolidine, solid medium; format: cell-based
[16] = tested on: C. spp.; test: Sensitivity of fungi to taurolidine, liquid medium; format: cell-based
[17] = systemic doses exceeding 40 g/day and cumulative doses up to and exceeding 300 g; cited from earlier work
[18] = tested on: Cryptococcus neoformans; test: Sensitivity of fungi to taurolidine, solid medium; format: cell-based
[19] = tested on: C. albicans (Jones); test: Sensitivity of fungi to taurolidine, liquid medium; format: cell-based; conditions: Candida albicans
[20] = Stability in the solid state; format: physicochemical; conditions: stored at ambient conditions
[21] = Apparent partition coefficient between octanol and water; format: physicochemical; conditions: water buffered at pH 7.2
[22] = tested on: Aspergillus fumigatus I; test: Sensitivity of fungi to taurolidine, solid medium; format: cell-based
[23] = tested on: Aspergillus fumigatus III; test: Sensitivity of fungi to taurolidine, solid medium; format: cell-based
[24] = tested on: C. albicans (Jones); test: Sensitivity of fungi to taurolidine, solid medium; format: cell-based; conditions: Candida albicans
[25] = tested on: C. albicans (Has. A); test: Sensitivity of fungi to taurolidine, liquid medium; format: cell-based; conditions: Candida albicans
[26] = tested on: Mucor spp. (light inoc.); test: Sensitivity of fungi to taurolidine, liquid medium; format: cell-based
[27] = tested on: Trichophyton rubrum; test: Sensitivity of fungi to taurolidine, liquid medium; format: cell-based

SMILES: O=S1(=O)CCN(CN2CCS(=O)(=O)NC2)CN1 [Taurolidine, 4,4′-methylenebis(tetrahydro-1,2,4-thiadiazine)1,1,1′,1′,-tetraoxide]
- antifungal activity [1]: > 5 mg/mL
- MIC [2]: 300 µg/mL (≈ 1050 µM)
- MIC [3]: > 5000 µg/mL
- pH of a saturated solution [4]: 7.4
- MIC [5]: 625 µg/mL (≈ 2200 µM)
- MIC [6]: 300 µg/mL (≈ 1050 µM)
- solubility ([7]; CHCl3): insoluble
- solubility ([7]; Dilute HCl): soluble
- solubility ([7]; Dilute NaOH): soluble
- solubility ([7]; EtOH): sparingly soluble
- solubility ([7]; Water, 20° C.): 1% at 20 °C
- MIC [8]: > 5000 µg/mL
- MIC [9]: < 300 µg/mL
- antibacterial activity [10]: 0.3 to 0.6 mg/mL
- MIC [11]: 625 µg/mL (≈ 2200 µM)
- MIC [12]: > 5000 µg/mL
- MIC [13]: 625 µg/mL (≈ 2200 µM)
- MIC [14]: 625 µg/mL (≈ 2200 µM)
- MIC [15]: < 300 µg/mL
- MIC [16]: 625 µg/mL (≈ 2200 µM)
- safety and tolerability [17]: safe and well tolerated
- MIC [18]: < 300 µg/mL
- MIC [19]: 5000 µg/mL (≈ 17600 µM)
- stability in the solid state [20]: acceptable stability
- apparent partition coefficient between octanol and water [21]: approximately 0.13
- MIC [22]: 625 µg/mL (≈ 2200 µM)
- MIC [23]: 625 µg/mL (≈ 2200 µM)
- MIC [24]: > 5000 µg/mL
- MIC [25]: 2500 µg/mL (≈ 8790 µM)
- MIC [26]: 625 µg/mL (≈ 2200 µM)
- MIC [27]: 300 µg/mL (≈ 1050 µM)
